Patent US9289461B2, “Reducing the risk of autoimmune disease” (Mead Johnson Nutrition (Asia Pacific) Pte. Ltd., priority 2013, dated 2016)

tested on: STC-1 (intestinal endocrine cell line); test: CCK release from STC-1 intestinal endocrine cell line; assay type: cell-based; conditions: compared with a partial hydrolysate (Gentlease) or free amino acids

Q: For “ALPMHIR [specific peptide from a casein hydrolysate of the present disclosure]”, which “CCK release from STC-1 cells” value is on record?
A: may stimulate CCK release

Q: With “DISLLDAQSAPLR [specific peptide from a casein hydrolysate of the present disclosure]” as the substance, how does the “CCK release from STC-1 cells” value read?
A: may stimulate CCK release

Q: Which “CCK release from STC-1 cells” value does the source give for “GPVRGPFP [specific peptide from a casein hydrolysate of the present disclosure]” here?
A: may stimulate CCK release
